Results on three compounds are retold here after EP0140848A1, “A pharmaceutical composition containing azo-bis-salicylic acid or a salt thereof, and a method for the treatment of inflammatory conditions in the intestines” (priority 1983, dated 1985).

Series [1] is described as follows: Toxicity (general statement, no method described). The following applies: no data or method given.
The subject of a further series is tuberculosis. The conditions noted are these: according to Ind. J. Med. Res. 40 (1952), p. 4-5, and Ind. J. Pharm. 13 (1951), p. 3-5; cited from earlier work.

As to `CC(=O)Nc1ccc(C(=O)O)c(O)c1` [Ac-PAS, N-acetyl-p-aminosalicylic acid], the toxicity entry in series [1] was “remarkably low”.
Regarding `O=C(O)c1ccc(N=Nc2ccc(C(=O)O)c(O)c2)cc1O` [4,4'-azo-bis-salicylic acid], in the series on tuberculosis, the activity against tuberculosis entry was “inactive”. In addition, the toxicity result in series [1] is reported as “remarkably low”.
With `Nc1ccc(C(=O)O)c(O)c1` [PAS, 4-aminosalicylic acid, reference compound], the toxicity result in series [1] was “remarkably low”.
